In general, IC50 refers to the midpoint of a concentration-inhibition curve.

Data on three molecules can be found in article PMC7174022 (Dalton transactions (Cambridge, England : 2003), 2020).

Series [1] deals with the cell lines investigated.
For series [2], the system named is microtubule network in MCF-7 cells. The format is cell-based, human.
The test system of series [3] is MCF-7 cells (breast adenocarcinoma). The format is cell-based, human. The conditions noted are these: read-out: IC50 MCF-7.
Series [4] has as its system Hep G2 cells (human hepatocellular carcinoma). It is filed as cell-based. The conditions noted are these: read-out: IC50 Hep G2.
Series [5] concerns MIA PaCa 2 cells (human pancreatic carcinoma). It is filed as cell-based. The conditions noted are these: read-out: IC50 MIA PaCa 2.
A further series concerns DU-145 cells. The format is cell-based, human.
In series [6] the test system is DU-145 cells (metastatic prostate carcinoma). The format is cell-based, human. To be noted: read-out: IC50 DU-145.
The test system of series [7] is PANC-1 cells (human pancreatic carcinoma). The format is cell-based. The conditions noted are these: read-out: IC50 PANC-1.
Series [8] has as its system HFF-1 cells (normal human foreskin fibroblast). The format is cell-based. The conditions noted are these: read-out: IC50 HFF-1.

In the case of `OCCN(CCO)Cc1ccccn1` [Complex L1, bis(2-hydroxyethyl)pyridylmethylamine], the “cytotoxicity of the ligands (in words)” value in series [1] was “did not exhibit any cytotoxicity”.
For the molecule `COc1cc2c(c(OC)c1OC)-c1ccc(OC)c(=O)cc1[C@@H](NC(C)=O)CC2` [colchicine, Colchicine], in [2], the “organization of microtubule network (positive control)” value was “disruption of microtubule network”.
As for `O=C1[O][Pt]2([NH][C@@H]3CCCC[C@H]3[NH]2)[O]C1=O` [Oxaliplatin], the IC50 in [3] turned out to be 0.6 ± 0.1 µM; in [4], 9.8 ± 0.3 µM; in series [5], 5.7 ± 0.2 µM; in series [6], 4.5 ± 0.3 µM; in [7], 3.1 ± 0.2 µM; in series [8] it was 7 ± 0.6 µM. Also, in the series with DU-145 cells, the “increase in cell killing efficiency in presence of verapamil” value stood at 8 times.
